Test results as given in PubChem BioAssay AID256 (DTP/NCI, 2004).
Values joined by “and” are separate entries in the source; they are usually repeats but may differ in a detail not shown here. Identical values can stand only once. Toxic doses and inconclusive results are not listed. How the source made its calls: active means survival T/C of 150% or more; inactive means T/C below 125% in these data.

Test system: CD2F1 mice, L1210 leukemia ip, survival T/C
Test: NCI In Vivo Anticancer Drug Screen. Data for tumor model L1210 Leukemia (intraperitoneal) in CD2F1 (CDF1) mice
Conditions: higher = longer survival
How it was run: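 Read-out first: treated-group measurement over vehicle-control measurement, expressed as a ratio. Animals bore a transplanted tumor line and were dosed with compound or vehicle.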

[1] = endpoint: mean survival time, dose: 6.25 mg/kg/injection, schedule: Q01DX009 (ip), vehicle: saline with Tween-80
[2] = endpoint: mean survival time, dose: 12.5 mg/kg/injection, schedule: Q01DX009 (ip), vehicle: saline with Tween-80
[3] = endpoint: mean survival time, dose: 25.0 mg/kg/injection, schedule: Q01DX009 (ip), vehicle: saline with Tween-80
[4] = endpoint: mean survival time, dose: 50.0 mg/kg/injection, schedule: Q04DX003 (ip), vehicle: saline with Tween-80
[5] = endpoint: mean survival time, dose: 100.0 mg/kg/injection, schedule: Q04DX003 (ip), vehicle: saline with Tween-80
[6] = endpoint: mean survival time, dose: 200.0 mg/kg/injection, schedule: Q04DX003 (ip), vehicle: saline with Tween-80
[7] = endpoint: mean survival time, dose: 100.0 mg/kg/injection, schedule: Q01DX009 (ip), vehicle: saline with Tween-80
[8] = endpoint: mean survival time, dose: 200.0 mg/kg/injection, schedule: Q01DX009 (ip), vehicle: saline with Tween-80
[9] = endpoint: mean survival time, dose: 400.0 mg/kg/injection, schedule: Q01DX009 (ip), vehicle: saline with Tween-80
[10] = endpoint: mean survival time, dose: 400.0 mg/kg/injection, schedule: Q04DX003 (ip), vehicle: saline with Tween-80

Measured: T/C

CC(O)C1OC(n2cnc3c(=O)[nH]c(N)nc32)C(O)C1O (configuration not stated)
inactive: endpoint: mean survival time, dose: 12.5 mg/kg/injection, schedule: Q01DX005 (ip), vehicle: distilled water + Tween-80 101 % of control | endpoint: mean survival time, dose: 25.0 mg/kg/injection, schedule: Q01DX005 (ip), vehicle: distilled water + Tween-80 100 % of control | endpoint: mean survival time, dose: 50.0 mg/kg/injection, schedule: Q01DX005 (ip), vehicle: distilled water + Tween-80 101 % of control | endpoint: mean survival time, dose: 100.0 mg/kg/injection, schedule: Q01DX005 (ip), vehicle: distilled water + Tween-80 97 % of control | endpoint: mean survival time, dose: 200.0 mg/kg/injection, schedule: Q01DX005 (ip), vehicle: distilled water + Tween-80 97 % of control | endpoint: median survival time, dose: 12.5 mg/kg/injection, schedule: Q01DX005 (ip), vehicle: distilled water + Tween-80 112 % of control | endpoint: median survival time, dose: 20.0 mg/kg/injection, schedule: Q01DX005 (ip), vehicle: distilled water + Tween-80 108 % of control | endpoint: median survival time, dose: 50.0 mg/kg/injection, schedule: Q01DX005 (ip), vehicle: distilled water + Tween-80 112 % of control | endpoint: median survival time, dose: 100.0 mg/kg/injection, schedule: Q01DX005 (ip), vehicle: distilled water + Tween-80 104 % of control | endpoint: median survival time, dose: 200.0 mg/kg/injection, schedule: Q01DX005 (ip), vehicle: distilled water + Tween-80 96 % of control

OC(CC(O)(C(F)(F)F)C(F)(F)F)CC(O)(C(F)(F)F)C(F)(F)F
inactive: [1] 95 % of control | [2] 92 % of control | [3] 90 % of control

OC(C=C(C(F)(F)F)C(F)(F)F)c1ccccc1Cl (configuration not stated)
inactive: [4] 102 % of control | [5] 107 % of control | [6] 111 % of control

CCCc1cc(OC)ccc1O
inactive: [7] 96 % of control | [5] 96 % of control | [8] 100 % of control | [6] 94 % of control | [9] 100 % of control | [10] 103 % of control

Cc1ccc(C)c(C(O)C(=O)O)c1 (configuration not stated)
inactive: endpoint: mean survival time, dose: 100.0 mg/kg/injection, schedule: Q04DX002 (ip), vehicle: Klucel (hydroxypropylcellulose) (HPC) 94 % of control | endpoint: mean survival time, dose: 200.0 mg/kg/injection, schedule: Q04DX002 (ip), vehicle: Klucel (hydroxypropylcellulose) (HPC) 105 % of control | endpoint: mean survival time, dose: 400.0 mg/kg/injection, schedule: Q04DX002 (ip), vehicle: Klucel (hydroxypropylcellulose) (HPC) 98 % of control

CS(C)=C1C(=O)NC(=S)NC1=O
inactive: endpoint: median survival time, dose: 20.75 mg/kg/injection, schedule: Q01DX009 (ip), vehicle: saline with Tween-80 108 % of control | endpoint: median survival time, dose: 41.5 mg/kg/injection, schedule: Q01DX009 (ip), vehicle: saline with Tween-80 102 % of control | endpoint: median survival time, dose: 83.0 mg/kg/injection, schedule: Q01DX009 (ip), vehicle: saline with Tween-80 111 % of control | endpoint: median survival time, dose: 166.0 mg/kg/injection, schedule: Q01DX009 (ip), vehicle: saline with Tween-80 107 % of control

CCN(CC)CCCNc1ncnc(Cl)c1C(=C(C)C)c1ccccc1
inactive: endpoint: mean survival time, dose: 100.0 mg/kg/injection, schedule: Q01DX001 (ip), vehicle: saline 97 % of control | endpoint: mean survival time, dose: 200.0 mg/kg/injection, schedule: Q01DX001 (ip), vehicle: saline 105 % of control

CCOC(=O)C1=C2CC(C)(C)CCC2(C)CCC1=O (configuration not stated)
inactive: endpoint: mean survival time, dose: 100.0 mg/kg/injection, schedule: Q04DX002 (ip), vehicle: saline with Tween-80 100 % of control | endpoint: mean survival time, dose: 200.0 mg/kg/injection, schedule: Q04DX002 (ip), vehicle: saline with Tween-80 100 % of control | endpoint: mean survival time, dose: 400.0 mg/kg/injection, schedule: Q04DX002 (ip), vehicle: saline with Tween-80 88 % of control

COC(C)(C)O/N=C(\C[n+]1ccccc1)c1ccccc1
inactive: endpoint: mean survival time, dose: 12.5 mg/kg/injection, schedule: Q01DX009 (ip), vehicle: water 95 % of control | endpoint: mean survival time, dose: 25.0 mg/kg/injection, schedule: Q01DX009 (ip), vehicle: water 91 % of control | endpoint: mean survival time, dose: 50.0 mg/kg/injection, schedule: Q01DX009 (ip), vehicle: water 90 % of control

CCC(CC)C(O)CC(O)CC(C)C (configuration not stated)
inactive: endpoint: mean survival time, dose: 25.0 mg/kg/injection, schedule: Q01DX009 (ip), vehicle: other 97 % of control | endpoint: mean survival time, dose: 50.0 mg/kg/injection, schedule: Q01DX009 (ip), vehicle: other 103 % of control | endpoint: mean survival time, dose: 100.0 mg/kg/injection, schedule: Q01DX009 (ip), vehicle: other 97 % of control | endpoint: mean survival time, dose: 100.0 mg/kg/injection, schedule: Q04DX003 (ip), vehicle: other 86 % of control | endpoint: mean survival time, dose: 400.0 mg/kg/injection, schedule: Q04DX003 (ip), vehicle: other 94 % of control

COc1nc(NC2OC(CO)C(O)C(O)C2O)cc(=O)[nH]1 (configuration not stated)
inactive: endpoint: median survival time, dose: 12.5 mg/kg/injection, schedule: Q01DX005 (ip), vehicle: saline 105 % of control | endpoint: median survival time, dose: 25.0 mg/kg/injection, schedule: Q01DX005 (ip), vehicle: saline 97 % of control | endpoint: median survival time, dose: 50.0 mg/kg/injection, schedule: Q01DX005 (ip), vehicle: saline 100 % of control | endpoint: median survival time, dose: 100.0 mg/kg/injection, schedule: Q01DX005 (ip), vehicle: saline 100 % of control | endpoint: median survival time, dose: 200.0 mg/kg/injection, schedule: Q01DX005 (ip), vehicle: saline 102 % of control

CCOC(=O)NC(NC(=O)OCC)C(Br)(Br)Br
inactive: endpoint: mean survival time, dose: 200.0 mg/kg/injection, schedule: Q01DX001 (ip), vehicle: Klucel (hydroxypropylcellulose) (HPC) 103 % of control | endpoint: mean survival time, dose: 400.0 mg/kg/injection, schedule: Q01DX001 (ip), vehicle: Klucel (hydroxypropylcellulose) (HPC) 95 % of control

COc1cc(Cc2nc(Cl)cc(Cl)n2)cc(OC)c1OC
inactive: [7] 105 % of control | [5] 95 % of control | [8] 97 % of control | [6] 93 % of control | [9] 103 % of control | [10] 97 % of control

OC1C2CC3C(C2)C13 (configuration not stated)
inactive: [7] 102 % of control and 106 % of control | [8] 96 % of control | [9] 98 % of control and 102 % of control

O=C1NCCCS1(=O)=O
inactive: endpoint: mean survival time, dose: 75.0 mg/kg/injection, schedule: Q01DX001 (ip), vehicle: saline 108 % of control

COc1ccc2c(c1)CNC1c3cc(OC)c(O)cc3CC21 (configuration not stated)
inactive: endpoint: mean survival time, dose: 66.0 mg/kg/injection, schedule: Q04DX003 (ip), vehicle: saline with Tween-80 107 % of control

N#CC1=C(N)CCC1
inactive: [1] 97 % of control | [2] 95 % of control | [3] 93 % of control | [5] 102 % of control | [10] 97 % of control

O=C(Nc1ccc2cc(S(=O)(=O)O)ccc2c1)c1ccc(N=Nc2c(S(=O)(=O)O)cc3cc(S(=O)(=O)O)cc(NC(=O)c4ccccc4)c3c2O)cc1
inactive: endpoint: mean survival time, dose: 50.0 mg/kg/injection, schedule: Q01DX009 (ip), vehicle: saline with Tween-80 96 % of control | [7] 101 % of control

CC(=O)Nc1ccc2oc(=O)ccc2c1
inactive: [5] 101 % of control | [6] 101 % of control | [10] 101 % of control

CN(C)N=Nc1ccccc1[N+](=O)[O-]
inactive: endpoint: mean survival time, dose: 53.0 mg/kg/injection, schedule: Q01DX001 (ip), vehicle: saline 105 % of control | endpoint: mean survival time, dose: 53.0 mg/kg/injection, schedule: Q01DX009 (ip), vehicle: saline 104 % of control | endpoint: mean survival time, dose: 79.0 mg/kg/injection, schedule: Q01DX001 (ip), vehicle: saline 105 % of control | endpoint: mean survival time, dose: 79.0 mg/kg/injection, schedule: Q01DX009 (ip), vehicle: saline 109 % of control | endpoint: mean survival time, dose: 119.0 mg/kg/injection, schedule: Q01DX001 (ip), vehicle: saline 108 % of control | endpoint: mean survival time, dose: 119.0 mg/kg/injection, schedule: Q01DX009 (ip), vehicle: saline 118 % of control | endpoint: mean survival time, dose: 178.0 mg/kg/injection, schedule: Q01DX001 (ip), vehicle: saline 115 % of control | endpoint: mean survival time, dose: 600.0 mg/kg/injection, schedule: Q01DX001 (ip), vehicle: saline 118 % of control

CC(=O)NC1C(OC(C)=O)OC(COC(c2ccccc2)(c2ccccc2)c2ccccc2)C(OS(C)(=O)=O)C1OC(C)=O (configuration not stated)
inactive: [4] 95 % of control | [5] 103 % of control | [6] 101 % of control | [10] 89 % of control
